Measurements reported in patent publication EP0481701B1, “Treatment composition” (priority 1990, dated 1992).

Columns and labels:
[1] = solubility of Triclosan in PBS (remark in the method); type: physicochemical; details: PBS without ethanol
Method: (§1) Liposomes were prepared by the reverse phase evaporation procedure referred to above incorporating Triclosan in the lipid mixture. Some of the liposome samples were prepared with concanavalin A (ConA) conjugated to their surface. Details are as follows: (a) Derivatisation of ConA with SATA 2.5µl of a stock solution containing 9.08mg N-succinimidyl-S-acetyl thioacetate (SATA) in 50µl dimethylformamide was added to ConA solution (10mg in 2.5ml phosphate (50mM) - EDTA (1mM) buffer, pH7.5) at room temperature. After reaction (15min) the derivatised protein (s-ConA) was separated from unreacted SATA by gel filtration on a Sephadex G-50 column (15 x 2cm). The s-ConA was activated by deacetylation using, for each 2ml of protein solution, 200µl of 0.1M hydroxylamine solution, made up in 2.5mM EDTA with sufficient solid Na₂HPO₄ added to bring the pH to 7.5. […] The fractions collected were analysed for phospholipid and Triclosan by scintillation counting. Particle sizes of the liposomes were determined by photon correlation spectroscopy, following the method described in Hutchinson et al., Biochim. […] (e) Assessment of efficacy The antibacterial efficacy of Triclosan delivered in targeted liposomes was assessed using a bacterial regrowth assay. […]

Strep. sanguis (CR2b) = assay: bacterial regrowth assay (antibacterial efficacy of Triclosan delivered in targeted liposomes); type: cell-based
Method: as §1, with “7.5. (b) Preparatlon of DPPE-MBS 40mg L-α-dipalmitoylphosphatidylethanolamine (DPPE) was dissolved in a mixture of 16ml dry chloroform, 2ml dry methanol and 20mg dry triethylamine. 20mg maleimidobenzoyl-N-hydroxysuccinimide ester (MBS) was added and the reaction mixture was stirred under nitrogen at room temperature for 24h, after which the organic phase was washed three times with phosphate buffered saline (PBS, pH7.3) to remove unreacted MBS. The DPPE-MBS derivative was recovered from the organic phase by rotary evaporation and was stored in a chloroform/methanol mixture (9:1 v/v) at 4°C. (c) Preparation of liposomes 27mg dipalmitoylphosphatidylcholine (DPPC), 3mg phosphatidylinositol (PI, from wheat germ) and 3mg DPPE-MBS were dissolved in 9ml chloroform/methanol mixture (4:1 v/v).” for “7.5.”

## Oc1cc(Cl)ccc1Oc1ccc(Cl)cc1Cl [Triclosan in solution, 2,4,4'-trichloro-2'-hydroxy diphenyl ether]
[1]
  solubility in PBS alone: virtually insoluble
Strep. sanguis (CR2b); 1min exposure, PBS plus human saliva (1:1), 5µg Triclosan in 100µl PBS with 10% ethanol
  % inhibition of growth incubated with saliva: 3%
Strep. sanguis (CR2b); 1min exposure, PBS, no saliva, 5µg Triclosan in 100µl PBS with 10% ethanol
  % inhibition of growth without saliva: 8%
Strep. sanguis (CR2b); relative to PBS alone, 2h exposure at 37°C, regrowth 18h, optical density at 630nm, PBS containing 10% ethanol, total Triclosan 10µg (free, liposomes with ConA) or 20µg (liposomes without ConA) in 100µl
  % inhibition of growth: 75%
